{"source": "patent US20220160652A1", "about": "“USE OF VITAMIN K IN COMBINATION WITH ANTICOAGULANTS” (KAYDENCE PHARMA AS, priority 2019, published 2022)", "key": {"VSMCs [1]": {"tested_on": "VSMCs", "experiment": "Hypoxia (CoCl2) induced oxidative stress in VSMCs (DCFDA)", "type": "cell-based", "method": "This study was performed to determine whether intracellular oxidative stress in VSCMs is derived from mitochondrial dysfunction. To perform this study, VSMCs were incubated with cobalt chloride, a known stabilizer of HIF1a. Cobalt chloride binding to HIF1a prevents the degradation of HIF1a and thus results in a cellular hypoxia state. HIF1a has been implicated in cancer biology as well as a number of other pathophysiologies, specifically in areas of vascularization and angiogenesis, energy metabolism, cell survival, and tumor invasion. Under normal circumstances, after injury, HIF1a is degraded by the enzyme prolyl hydroxylase (PHD). The continued up-regulation of HIF1 a (mimicked by cobalt chloride) promotes tumor growth and metastasis through its role in initiating angiogenesis and regulating cellular metabolism to overcome hypoxia. Hypoxia promotes apoptosis in both normal and tumor cells. Additionally, hypoxia generates significant intracellular oxidative stress.\nTo perform the study, VSMCs (10,000 cells/well) were plated in a 96-well plate and left to adhere overnight. Next, the medium was changed to a medium supplemented with 50 μM CoCl2 for 19 hours. The next day, cells were washed and incubated for 1 hour with 20 μM DCFDA in the presence of a vehicle (solvent for CoCl2 and vitamin K2 (MK-7)/UQ10), 10 μM vitamin K2 (MK-7), or 10 μM UQ10 in medium. The medium was then changed to a medium supplemented with vehicle, vitamin K2 (MK-7)/UQ10, or CoCl2, and fluorescent was measured for 6 hours. Fluorescence intensity was normalized for cell count."}, "Sprague-Dawley rats": {"tested_on": "Sprague-Dawley rats", "experiment": "T-TAS thrombus formation in whole blood of treated Sprague-Dawley rats", "type": "in vivo, rat", "method": "This experiment was conducted in order to evaluate the effects of vitamin K2 (MK-7) on the anticoagulant activity of the new oral anticoagulants (NOAC) rivaroxaban and dabigatran using the T-TAS Total Thrombus-formation Analysis System. The T-TAS Total Thrombus-formation Analysis System is a microchip-based flow chamber system capable of evaluating whole-blood thrombogenicity. It is a useful tool in monitoring the efficacy of anticoagulants on thrombus formation and predicting the risk of bleeding complications. To perform the study, 45 wild-type male Sprague-Dawley and 45 transgenic male Ren-2 rats [TGR(mREN-2)27] at the age of 10-11 weeks at the beginning of the treatment period were purchased from animal facility IKEM-CEM Institute of Clinical and Experimental Medicine (Prague, Czech Republic). All animals in the experiment were housed in individually ventilated cages (2-3 rats per cage) and kept in the animal rooms of JCET at a relative humidity of 55±10%, a temperature of 22±2 ° C., and a light cycle of 7 AM to 7 PM. The rats had free access to food and water. After delivery, animals were randomly divided into 10 experimental groups (5 or 10 rats per group), as indicated below in Table 1. Four days before the start of the treatment, the first part of animals' body weight and food intake was measured in selected representative three cages (rats n=9) to calculate the appropriate amount of tested compounds required for addition to the diet to obtain the dosing indicated in Table 1. It was estimated that food intake was approximately 30 g of chow per rat per day. […] The body mass of the rats was measured at the beginning and at the end of treatment. At the beginning and at the end of treatment, the food intake per day was measured in representative group of animals to monitor the daily dosing of tested compounds (per kg of body mass). The thrombus formation in vitro was measured in whole blood using a microchip-based flow chamber system according to manufacturers' protocol (Total Thrombus-formation Analyser System, T-TAS; Fujimori Kogyo Co., Ltd., Tokyo, Japan). […]"}, "[2]": {"tested_on": "transgenic Ren-2 rats [TGR(mREN-2)27]", "experiment": "T-TAS thrombus formation in whole blood of treated TGR (Ren-2) rats", "type": "in vivo, rat", "method": "This experiment was conducted in order to evaluate the effects of vitamin K2 (MK-7) on the anticoagulant activity of the new oral anticoagulants (NOAC) rivaroxaban and dabigatran using the T-TAS Total Thrombus-formation Analysis System. The T-TAS Total Thrombus-formation Analysis System is a microchip-based flow chamber system capable of evaluating whole-blood thrombogenicity. It is a useful tool in monitoring the efficacy of anticoagulants on thrombus formation and predicting the risk of bleeding complications. […] Four days before the start of the treatment, the first part of animals' body weight and food intake was measured in selected representative three cages (rats n=9) to calculate the appropriate amount of tested compounds required for addition to the diet to obtain the dosing indicated in Table 1. […] The body mass of the rats was measured at the beginning and at the end of treatment. At the beginning and at the end of treatment, the food intake per day was measured in representative group of animals to monitor the daily dosing of tested compounds (per kg of body mass). The thrombus formation in vitro was measured in whole blood using a microchip-based flow chamber system according to manufacturers' protocol (Total Thrombus-formation Analyser System, T-TAS; Fujimori Kogyo Co., Ltd., Tokyo, Japan). […]"}, "VSMCs [3]": {"tested_on": "VSMCs", "experiment": "ATP increase, 48 h incubation with CoCl2 comparison (luminescence)", "type": "cell-based", "conditions": "10 μM, vs CoCl2 100 μM", "method": "(§1) This study was performed to further investigate the origin of ATP production that is influenced by vitamin K2 (MK-7). To perform this study, VSCMs (5000 cells/well) were plated in 96-well plates and left to adhere overnight. Next, cells were incubated for 48 hours with either vehicle, CoCl2 (100 μM), vitamin K2 (MK-7) (10 μM), or UQ10 (10 μM). Hoechst was added to correct for cell number (1 μg/mL). Next, ATP was measured using mammalian lysis buffer for 5 minutes, after which 50 μL ATP substrate solution was added to the wells and incubated for 10 minutes in a dark environment. Finally, medium was transferred to a white plate to measure luminescence."}, "VSMCs [4]": {"tested_on": "VSMCs", "experiment": "ATP increase, 24 h incubation (luminescence)", "type": "cell-based", "conditions": "10 μM, p=0.014 for MK-7", "method": "This study was performed to determine if vitamin K2 (MK-7) affects ATP generation. ATP is generated via glycolysis in the cytoplasm and via both the Krebs-cycle and oxidative phosphorylation in the mitochondria. ATP generation via glycolysis delivers only 2 ATP, whereas ATP generation in the mitochondria generates some 32 ATP.\nas §1, with “To” for “This study was performed to further investigate the origin of ATP production that is influenced by vitamin K2 (MK-7). To”, “24” for “48”, “vehicle,” for “vehicle, CoCl2 (100 μM),”, “minutes” for “minutes,”, “Finally, the” for “Finally,”, “luminescence” for “luminescence.”"}, "VSMCs [5]": {"tested_on": "VSMCs", "experiment": "Warfarin-induced oxidative stress in VSMCs, warfarin concentration series (DCFDA)", "type": "cell-based", "conditions": "warfarin 10 to 100 μM, 6 hours", "method": "It is known that the level of reactive oxygen species in cells can be measured by measuring the conversion of 2′,7′—dichlorofluorescein diacetate (DCFDA) to the fluorescent dye 2′,7′-dichlorofluorescein (DCF). The fluorescence generated by cells subjected to DCFDA is directly proportional to the amount of oxidized DCFDA to DCF.\nIn this study, vitamin K metabolism was blocked using the vitamin K-antagonist warfarin. The study was conducted to investigate whether interference with vitamin K metabolism would cause intracellular oxidative stress. To perform the study, VSMCs (10,000 cells/well) were plated in 96-well plates and left to adhere overnight. Next, cells were incubated for 1 hour with 20 μM DCFDA.\nThe medium was then changed to a medium supplemented with different concentrations of warfarin ranging from 10 to 100 μM, and fluorescence intensity was measured over 6 hours. Fluorescence was normalized for number of cells."}}, "note": "“Also recorded” adds a separate entry of the source."}
{"smiles": "[Cl][Co][Cl]", "note": "[CoCl2, cobalt chloride]", "values": [{"measurement": "oxidative stress induced by cobalt chloride", "setting": "VSMCs [1]; 50 μM CoCl2", "value": "induces increased oxidative stress"}]}
{"smiles": "O=C(NC[C@H]1CN(c2ccc(N3CCOCC3=O)cc2)C(=O)O1)c1ccc(Cl)s1", "note": "[Rivaroxaban, rivaroxaban, reference compound]", "values": [{"measurement": "thrombus formation", "setting": "Sprague-Dawley rats", "value": "inhibited thrombus formation"}, {"measurement": "thrombus formation", "setting": "[2]", "value": "also inhibited thrombus formation"}]}
{"smiles": "COC1=C(OC)C(=O)C(C/C=C(\\C)CC/C=C(\\C)CC/C=C(\\C)CC/C=C(\\C)CC/C=C(\\C)CC/C=C(\\C)CC/C=C(\\C)CC/C=C(\\C)CC/C=C(\\C)CCC=C(C)C)=C(C)C1=O", "note": "[UQ10, reference compound]", "values": [{"measurement": "hypoxia induced oxidative stress (counteraction)", "setting": "VSMCs [1]; 10 μM, after 50 μM CoCl2 for 19 hours", "value": "This effect was not found"}, {"measurement": "ATP levels compared to CoCl2", "setting": "VSMCs [3]", "value": "significant higher ATP levels"}, {"measurement": "ATP production in VSMCs compared to the vehicle", "setting": "VSMCs [4]", "value": "only vitamin K2 (MK-7) increased ATP production in VSMCs significantly"}]}
{"smiles": "CC(=O)CC(c1ccccc1)c1c(O)c2ccccc2oc1=O", "note": "(stereo not shown) [warfarin]", "values": [{"measurement": "intracellular oxidative stress caused by warfarin", "setting": "VSMCs [5]", "value": "did cause intracellular oxidative stress; also recorded: results in increased intracellular oxidative stress"}]}
